From patent US20250017912A1, “METHODS FOR DOWN-REGULATION AND UP-REGULATION OF PATHWAYS” (MedRegen, LLC, priority 2023, published 2025)
Like-named read-outs stand apart in the source and are kept apart here.

What was measured:
[1] = in vivo
[2] = system: cell migration stimulated by CXCL12; conditions: cited from earlier work
clinical = conditions: human, in vivo
CD34+HSCs = conditions: cited from earlier work
[3] = Tacrolimus whole blood pharmacokinetics (LC-MS-MS) after SC Composition A; assay type: in vivo, human; conditions: for Tacrolimus blood trough levels: 0.01 ml/kg dose group; for AUC / Cmax / Tmax / half-life: human, whole blood; for AUC: read-out: Tacrolimus AUCtau (GM); for Cmax: read-out: Tacrolimus Cmax (GM)
Experimental: Tacrolimus. Blood samples were obtained from all subjects in parallel as for plerixafor. Whole blood from each sample was stored in −80° C. condition until shipment. The analysis of K2EDTA whole blood for the quantitation of tacrolimus using a validated method by LC-MS-MS was performed by Worldwide Clinical Trials, Bioanalytical Services (Austin, TX, USA) in compliance with principles of GLP standards as referenced above.
Study data were collected and similar pharmacokinetic parameters as above were calculated using Analyst® (Version 1.4.2 or 1.6.1, Applied Biosystems/MDS Sciex) and evaluated with Watson Laboratory Information Management System™ (LIMS; Version 7.2.0.03, Thermo Fisher Scientific) software.

[4] = sc, 0.005 mL/kg, Composition A 0.005 mL/kg SC QAD, Day 5
[5] = sc, 0.005 mL/kg, Composition A 0.005 mL/kg SC, Day 1
[6] = sc, 0.01 mL/kg, Composition A 0.01 mL/kg SC QAD, Day 5
[7] = sc, 0.01 mL/kg, Composition A 0.01 mL/kg SC, Day 1
[8] = sc, 0.02 mL/kg, Composition A 0.02 mL/kg SC QAD, Day 5
[9] = sc, 0.02 mL/kg, Composition A 0.02 mL/kg SC, Day 1

c1cc(CN2CCCNCCNCCCNCC2)ccc1CN1CCCNCCNCCCNCC1 [Plerixafor, 1,1′-[1,4-phenylenebis(methylene)]bis-1,4,8,11-tetraazacyclo-tetradecane]
Plerixafor median time to Cmax ([1]; human): 1 to 3 h
Plerixafor elimination ([1]; human, 48 h): fully eliminated at 48 hours
Plerixafor Cmax and AUC versus dose [1]: increased in a dose-proportional manner
IC50 [2]: 51 ± 17 nM
half-life (clinical; Plerixafor geometric mean t1/2): 3 to 6 h
half-life (clinical; sc, Plerixafor t1/2 (GM)): 3.29 h
Peak CD34+ (CD34+HSCs; high dose plerixafor (0.48 mg/kg)): 32.2 c/μL
CD34+HSCs mobilized at peak levels (CD34+HSCs; normal dose of plerixafor (0.24 mg/kg)): 27.8 µL⁻¹

C=CC[C@@H]1/C=C(\C)C[C@H](C)C[C@H](OC)[C@H]2O[C@@](O)(C(=O)C(=O)N3CCCC[C@H]3C(=O)O[C@H](/C(C)=C/[C@@H]3CC[C@@H](O)[C@H](OC)C3)[C@H](C)[C@@H](O)CC1=O)[C@H](C)C[C@@H]2OC [Tacrolimus]
Tacrolimus blood trough levels ([3]; day 1): less than 2 ng/ml
Tacrolimus blood trough levels ([3]; day 5): < 3 ng/mL
Tacrolimus Cmax and AUC versus dose ([3]; Composition A 0.005, 0.01, 0.02 mL/kg, Day 1 and QAD for 5 days): increased in a dose-proportional manner
Tacrolimus Ctrough (GM) ([3]; Composition A 0.005 mL/kg SC QAD, Day 5): 0.88 ng/mL
Tacrolimus Ctrough (GM) ([3]; Composition A 0.005 mL/kg SC, Day 1): 0.57 ng/mL
Tacrolimus median Ctrough ([3]; Composition A 0.005 mL/kg, Day 1): 0.58 ng/mL
Tacrolimus Ctrough ([3]; Composition A 0.005 mL/kg, Day 5): 0.90 ng/mL
Tacrolimus Ctrough (GM) ([3]; Composition A 0.01 mL/kg SC QAD, Day 5): 1.89 ng/mL
Tacrolimus Ctrough (GM) ([3]; Composition A 0.01 mL/kg SC, Day 1): 1.45 ng/mL
Tacrolimus median Ctrough ([3]; Composition A 0.01 mL/kg, Day 1): 1.48 ng/mL
Tacrolimus Ctrough ([3]; Composition A 0.01 mL/kg, Day 5): 1.99 ng/mL
Tacrolimus Ctrough (GM) ([3]; Composition A 0.02 mL/kg SC QAD, Day 5): 2.94 ng/mL
Tacrolimus Ctrough (GM) ([3]; Composition A 0.02 mL/kg SC, Day 1): 2.12 ng/mL
Tacrolimus median Ctrough ([3]; Composition A 0.02 mL/kg, Day 1): 2.24 ng/mL
Tacrolimus Ctrough ([3]; Composition A 0.02 mL/kg, Day 5): 3.19 ng/mL
AUC [3, 4]: 70.1 ng·h/mL
Cmax [3, 4]: 2.09 ng/mL
Tmax ([3]; sc, 0.005 mL/kg, Composition A 0.005 mL/kg SC QAD, Day 5, read-out: Tacrolimus Tmax (Median)): 10 h
half-life ([3]; sc, 0.005 mL/kg, Composition A 0.005 mL/kg SC QAD, Day 5, read-out: Tacrolimus t1/2 (GM) (converted)): 24.9 h
AUC [3, 5]: 46.4 ng·h/mL
Cmax [3, 5]: 1.47 ng/mL
Tmax ([3]; sc, 0.005 mL/kg, Composition A 0.005 mL/kg SC, Day 1, read-out: Tacrolimus Tmax (Median)): 7.5 h
half-life ([3]; sc, 0.005 mL/kg, Composition A 0.005 mL/kg SC, Day 1, read-out: Tacrolimus t1/2 (GM) (converted)): 23.8 h
AUC [3, 6]: 171 ng·h/mL
Cmax [3, 6]: 5.37 ng/mL
Tmax ([3]; sc, 0.01 mL/kg, Composition A 0.01 mL/kg SC QAD, Day 5, read-out: Tacrolimus Tmax (Median)): 5.5 h
half-life ([3]; sc, 0.01 mL/kg, Composition A 0.01 mL/kg SC QAD, Day 5, read-out: Tacrolimus t1/2 (GM) (converted)): 29.5 h
AUC [3, 7]: 105 ng·h/mL
Cmax [3, 7]: 3.15 ng/mL
Tmax ([3]; sc, 0.01 mL/kg, Composition A 0.01 mL/kg SC, Day 1, read-out: Tacrolimus Tmax (Median)): 12 h
half-life ([3]; sc, 0.01 mL/kg, Composition A 0.01 mL/kg SC, Day 1, read-out: Tacrolimus t1/2 (GM) (converted)): 37.8 h
AUC [3, 8]: 237 ng·h/mL
Cmax [3, 8]: 7.91 ng/mL
Tmax ([3]; sc, 0.02 mL/kg, Composition A 0.02 mL/kg SC QAD, Day 5, read-out: Tacrolimus Tmax (Median)): 2 h
half-life ([3]; sc, 0.02 mL/kg, Composition A 0.02 mL/kg SC QAD, Day 5, read-out: Tacrolimus t1/2 (GM) (converted)): 30.6 h
AUC [3, 9]: 152 ng·h/mL
Cmax [3, 9]: 4.49 ng/mL
Tmax ([3]; sc, 0.02 mL/kg, Composition A 0.02 mL/kg SC, Day 1, read-out: Tacrolimus Tmax (Median)): 8.01 h
half-life ([3]; sc, 0.02 mL/kg, Composition A 0.02 mL/kg SC, Day 1, read-out: Tacrolimus t1/2 (GM) (converted)): 36.4 h
half-life ([3]; subcutaneous, Composition A 0.005, 0.01, 0.02 mL/kg, Days 1 and 5, read-out: Tacrolimus GM t1/2): 24 to 38 h
Tmax ([3]; subcutaneous, single dose Day 1 and QAD dosing for 5 days, all doses, read-out: Tacrolimus median Tmax): 2 to 12 h
Mean tacrolimus trough levels ([3]; intermediate dose of MRG-001 (0.01 mL/kg)): 1.8 ng/mL
Mean tacrolimus trough levels ([3]; lowest dose of MRG-001 (0.005 ml/kg)): 0.8 ng/mL
Peak levels of tacrolimus ([3]; middle dose cohort (FIG. 1C)): 2 to 3 ng/mL
